pIC50: −log10 of the molar value. Calls of active or inactive are those of the source. No rule for the calls is given here. A value given as a limit tells only on which side of the number the result lay.

IC50 data for 63 compounds are collected here from PubChem BioAssay AID1259371 (The Scripps Research Institute Molecular Screening Center, 2018).

In this assay the target is Microphthalmia-associated transcription factor (Homo sapiens) (UniProt O75030). The assay can be described thus: compounds blocking human MITF signal – biochemical, AlphaScreen, dose response (AID 1259371). The settings on record: AlphaScreen biochemical MITF assay, signal inhibition. (In Alpha technology, singlet oxygen from a donor bead excites a nearby acceptor bead.)
Microphthalmia-associated transcription factor (Homo sapiens), sequence (O75030 whole entry, looked up): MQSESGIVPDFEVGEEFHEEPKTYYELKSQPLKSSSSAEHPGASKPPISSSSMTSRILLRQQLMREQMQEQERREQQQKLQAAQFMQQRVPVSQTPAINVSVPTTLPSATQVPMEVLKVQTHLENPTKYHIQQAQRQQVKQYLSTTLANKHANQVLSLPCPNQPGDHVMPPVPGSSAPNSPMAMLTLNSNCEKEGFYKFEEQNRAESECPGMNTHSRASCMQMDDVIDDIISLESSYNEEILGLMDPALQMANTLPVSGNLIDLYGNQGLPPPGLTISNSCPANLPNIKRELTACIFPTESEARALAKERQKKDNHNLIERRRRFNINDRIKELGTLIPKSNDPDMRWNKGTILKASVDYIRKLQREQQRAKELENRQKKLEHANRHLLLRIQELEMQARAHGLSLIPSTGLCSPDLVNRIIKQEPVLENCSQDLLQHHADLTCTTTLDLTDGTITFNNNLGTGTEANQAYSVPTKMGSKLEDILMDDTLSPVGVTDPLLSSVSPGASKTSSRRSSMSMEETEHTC
For the compound `CCOC(=O)Cc1[nH]nc2c1C1(C(=O)N(CC)c3ccccc31)C(C#N)=C(N)O2` (stereo not drawn), the IC50 was > 6480 nM (inactive). For the compound `Cc1cc(CSC(=N)N)c(O)c(C)n1`, the pIC50 is 6.27. On the same count and under the same terms, next, `CCN(CC)c1ccc(C(c2c(C)[nH][nH]c2=O)c2c(C)[nH][nH]c2=O)cc1`: 6.54. With `Cc1ccc(N2C(=O)c3ccccc3NC2c2cccc([N+](=O)[O-])c2)cc1` (stereo not drawn), the IC50 is > 5150 nM (inactive). On the same count and under the same terms, as for `Cc1ccc(N2C(=O)C3C(C2=O)C2(CO)C=CC3(C)O2)cc1[N+](=O)[O-]` (stereo not drawn), the figure is > 6480 nM (inactive). For `NC(=O)c1cccc(-c2cccs2)c1`, the IC50 result was “inactive”. Same read-out and setting: next, `O=C1N[C@@H](COCc2ccccc2)C(=O)N2CCN(C(=O)NCc3ccccc3)C[C@H]12`: “inactive”. Regarding `CCN1CCN(Cc2coc3ccccc3c2=O)CC1`, the IC50 is > 6480 nM (inactive). On to `S=c1[nH]nc(-c2cccnc2)n1/N=C/C=C/c1ccco1`, for which the pIC50 is 6.33. In the case of `O=C1O[C@H](C(O)CO)C(O)=C1O` (stereo partly drawn), the IC50 result is “inactive”.

As for `O=C(O)c1cc(S(=O)(=O)Nc2ccc3cn[nH]c3c2)ccc1O`, the IC50 entry is “inactive”. Take `COc1ccc(CCNC(=O)CN2CCN(Cc3nc(-c4ccco4)cs3)CC2)cc1OC`: the IC50 entry was “inactive”. The same measure, in the same setting: as for `CN(C)c1ccc(NC(=O)CSc2ncccc2C(=O)O)cc1`, the entry is “inactive”. The same measure, in the same setting: as for `CCOC(=O)c1cc(N2C(=O)C3C4C=CC(C4)C3C2=O)ccc1Cl` (stereo not drawn), the entry is “inactive”.

As for `O=C(NC1CCCCC1)N1CCN2C(=O)[C@@H]3C[C@@H](O)CN3C(=O)[C@H]2C1`, the IC50 result is “inactive”.

In the case of `Cc1ccc(O)c(NC(=S)NC(=O)/C=C/c2ccco2)c1`, the IC50 was > 6480 nM (inactive).

Consider `Cc1cccc(OCC(=O)N2CCN(Cc3cccc(Br)c3)CC2)c1`, for which the IC50 was > 6480 nM (inactive). The same measure, in the same setting: as for `COc1ccccc1C1(NC(=O)CCCCC2SCC3NC(=O)NC32)CCCC1` (stereo not drawn), the entry is “inactive”. Still for that read-out and setting: next, `CC1=NN(c2ccc(C(=O)O)c(N)c2)C(=O)C1`: “inactive”. `CC(C)C[C@@H]1NC(=O)[C@H]2CN(C(=O)NC3CCCCC3)CCN2C1=O`: the pIC50 was 6.01. Turning to `O=C(Nc1ccc(-c2cn[nH]c2)c(C(F)(F)F)c1)C1COc2ccccc2O1` (stereo not drawn), the IC50 was > 2160 nM (inactive).

`O=C(NC1CCN(Cc2ccccc2)CC1)c1ccc2nc(-c3cccs3)sc2c1`: the IC50 was > 6380 nM (inactive). As to `O=C(O)c1ccccc1-c1ccc(/C=C/[N+](=O)[O-])o1`, the pIC50 was 6.34.

Turning to `CCN1CCN(CCOCCOc2ccc(F)cc2)CC1`, the IC50 was > 6480 nM (inactive). The same measure, in the same setting: next, `Cc1ccc(/C(C#N)=C\c2ccco2)cc1`: “inactive”. For `CN(C)CCn1nnnc1SCC1=C(C(=O)O)N2C(=O)[C@@H](NC(=O)Cc3csc(N)n3)[C@H]2SC1`, the pIC50 was 6.67. Consider `Cc1cc(C)n(C(=O)/C=C/c2ccco2)n1`, for which the pIC50 was 6.09. As for `COC(=O)CN1C(=O)S/C(=C/c2ccc([N+](=O)[O-])o2)C1=O`, the IC50 entry is “inactive”. The same measure, in the same setting: next, `COc1cc(C=Nc2ccc(N(C)C)cc2)cc(I)c1O`: > 6480 nM (inactive); `COc1c(O)cc(O)cc1O`: “inactive”. Take `Oc1ccc(CCNc2cc(-c3cccs3)ncn2)cc1`: the IC50 is > 6700 nM (inactive). On the same count and under the same terms, as for `CC[C@H](C)[C@@H]1NC(=O)[C@H]2CN(C(=O)NCc3ccccc3)CCN2C1=O`, the entry is “inactive”; as for `CCCCOc1ccc(C(=O)N/C(=C/c2ccco2)C(=O)O)cc1`, “inactive”. Take `O=c1[nH]cc(N=Cc2ccc([N+](=O)[O-])o2)c(=O)[nH]1`: the pIC50 was 8.15. With `O=C1OC(c2ccc(Cl)cc2Cl)=N/C1=C\c1ccc([N+](=O)[O-])o1`, the IC50 entry is “inactive”. As for `CCc1ccc(NC(=O)CCc2nc(C3=CCN(C)CC3)no2)cc1`, the IC50 entry was “inactive”. Consider `NC(=O)c1cncc(-c2cccs2)c1`, for which the pIC50 is 6.49. For the compound `O=C(O)c1cc(S(=O)(=O)Nc2ccncc2)ccc1O`, the IC50 result is “inactive”. With `CN(C)[C@@H]1C(=O)C(C(=O)NCN2CCCC2)=C(O)[C@@]2(O)C(=O)C3=C(O)c4c(O)cccc4[C@@](C)(O)[C@H]3C[C@@H]12`, the pIC50 was 6.37. On the same count and under the same terms, next, `Cc1cc(O)c2c(c1)Cc1cccc(O)c1C2=O`: 6.32. Same read-out and setting: as for `CCCCn1c(=O)[nH]c(=O)c2c1nc(-c1ccc([N+](=O)[O-])o1)n2C`, the figure is 7.18. Regarding `OCCNc1cc(-c2cccs2)ncn1`, the IC50 entry was “inactive”.

In the case of `O=C(NCc1ccccc1)N1CCN2C(=O)[C@@H]3CSCN3C(=O)[C@H]2C1`, the IC50 entry is “inactive”.

Consider `O=C(OC1CCCC1=O)c1ccc(Cl)c(S(=O)(=O)N2CCOCC2)c1` (stereo not drawn), for which the IC50 entry was “inactive”. As to `Cc1ccc(C(=O)N/C(=C/c2ccc([N+](=O)[O-])o2)C(=O)O)cc1`, the IC50 result was “inactive”. Still for that read-out and setting: as for `CCCCNCCOc1ccccc1OCC`, the figure is > 6480 nM (inactive). As for `CCN(CC)c1ncnc2c1ncn2[C@@H]1O[C@H](COP(=O)(O)OP(=O)(O)C(Br)(Br)P(=O)(O)O)C(O)[C@@H]1O` (stereo partly drawn), the pIC50 was 6.76. Consider `c1ccc2c(c1)ncn2CC1CCN(Cc2cn3ccccc3n2)CC1`, for which the IC50 result was “inactive”. For the compound `C[C@H](O)[C@H]1NC(=O)[C@H]2CN(C(=O)NCc3ccccc3)CCN2C1=O`, the IC50 result was “inactive”.

For `O=c1[nH]c(-c2ccco2)nc2sc3c(c12)CCCC3`, the pIC50 was 7.37. For `CCOC1=CC(c2ccc3c(c2)OCO3)CC(=O)c2c(C)oc(C)c21` (stereo not drawn), the IC50 was > 6480 nM (inactive). Regarding `C=C1c2cccc(O)c2C(O)=C2C(=O)[C@]3(O)C(O)=C(C(N)=O)C(=O)[C@@H](N(C)C)[C@@H]3[C@@H](O)[C@H]12`, the pIC50 is 7.40. On the same count and under the same terms, next, `O=C(Nc1ccc(C(=O)Nc2ccc(C(=O)Nc3ccc(S(=O)(=O)O)c4cc(S(=O)(=O)O)cc(S(=O)(=O)O)c34)cc2)cc1)Nc1ccc(C(=O)Nc2ccc(C(=O)Nc3ccc(S(=O)(=O)O)c4cc(S(=O)(=O)O)cc(S(=O)(=O)O)c34)cc2)cc1`: 6.01. For the compound `COc1ccc2c3c(cccc13)C(=O)N(C)C2=O`, the IC50 entry was “inactive”. The same measure, in the same setting: next, `CC(C)[C@@H]1NC(=O)[C@H]2CN(C(=O)NC3CCCCC3)CCN2C1=O`: > 2160 nM (inactive). For the compound `CC1=C/C(=N\N=C2\NC(=O)C(CC(=O)Nc3ccc(C(=O)O)cc3)S2)CC(C)(C)C1` (stereo not drawn), the pIC50 was 6.48. With `CCN(CC)CC(=O)Nc1ccc(OC)cc1`, the IC50 is > 6480 nM (inactive). As for `COc1cc(/C=N/N=C2\NC(=O)C(CC(=O)O)S2)ccc1OCc1ccc(C)cc1` (stereo not drawn), the IC50 result was “inactive”.

In the case of `Cc1ccc(-c2ncn(-c3ccc(Nc4cc(-n5cnc(Nc6ccccc6)n5)c(F)cn4)cc3)n2)cn1`, the IC50 entry was “inactive”. Turning to `COc1cc(N2CCOCC2)ccc1Nc1cc(Nc2ccccc2-n2cccn2)c(C(F)(F)F)cn1`, the IC50 result was “inactive”.

Turning to `O=C(CN1C(=O)NC2(CCCCCC2)C1=O)NC(=O)NCc1ccco1`, the IC50 result is “inactive”. The same measure, in the same setting: as for `Cc1cncc2c(S(=O)(=O)N3CC[C@@H](NC(=O)C(O)c4ccc(F)cc4F)C3)cccc12` (stereo partly drawn), the entry is “inactive”; as for `CN(C)C(=O)N1CCN(S(=O)(=O)c2cccc([N+](=O)[O-])c2)CC1`, > 6480 nM (inactive).

What is called IC50 is the concentration at which inhibition is half-maximal. As a reminder, the pIC50 is the IC50 on a negative log10 scale, so that one unit is a factor of ten.
